EC50, EC90 and IC90 data for four molecules are collected here from ChEMBL document CHEMBL5233256, “Flavaglines as natural products targeting eIF4A and prohibitins: From traditional Chinese medicine to antiviral activity against coronaviruses” (Eur J Med Chem, 2020).

One test relates to Hepatitis C virus. The test can be described thus: Antiviral activity against HCV infected in human Huh-7.5.1 cells assessed as reduction in viral infection incubated for 48 hrs. The class given is functional, organism-based, Hepacivirus hominis. Conditions: Huh-7.5.1, 48 h.
The subject of test [1] is Middle East respiratory syndrome-related coronavirus. The test can be described thus: Antiviral activity against MERS-COV infected in human MRC5 cells incubated for 1 hr by crystal violet staining based plaque assay. The class given is functional, organism-based.
The test system of another test is Human coronavirus 229E. The test can be described thus: Antiviral activity against hCoV-229E infected in human MRC5 cells incubated for 1 hr by crystal violet staining based plaque assay. The class given is functional, organism-based.
For the next test, the system named is Poliovirus 1. The experiment in a line: Antiviral activity against human poliovirus 1 infected in human MRC5 cells incubated for 1 hr by crystal violet staining based plaque assay. As to conditions: Enterovirus C, MRC5, 1 h. It is filed as functional, organism-based.
A further test has as its system SARS-CoV-2. The experiment in a line: Antiviral activity against SARS-CoV-2 USA_WA1/2020 infected in African green monkey Vero E6 cells assessed as reduction in virus replication preincubated with cell for 2 hrs followed by viral infection for 1 hr and measured after 48 hrs by RT-qPCR method. The class given is functional. As to conditions: Severe acute respiratory syndrome coronavirus 2, USA_WA1/2020, Vero C1008; time 51 hrs.

The EC50 is the concentration needed to bring the measured effect to its halfway point. For `COc1ccc([C@@]23Oc4cc(OC)cc(OC)c4[C@]2(O)[C@H](O)[C@H](C(=O)N(C)C)[C@H]3c2ccccc2)cc1` [ROCAGLAMIDE], the EC50 in the test on Hepatitis C virus was 4 nM.
What is called EC90 is the concentration needed for an effect of 90%. In the case of `COC(=O)[C@H]1[C@@H](O)[C@@]2(O)c3c(OC)cc(O[C@@H]4O[C@@H]([C@H](O)CO)CO[C@H]4OC)cc3O[C@@]2(c2ccc(OC)cc2)[C@@H]1c1ccccc1` [SILVESTROL], the EC50 in test [1] (MRC5, 1 h) came to 1.3 nM; in the test on Human coronavirus 229E (MRC5, 1 h) it was 3 nM; with Poliovirus 1, 20 nM. For the same molecule, the EC90 in test [1] (MRC5, time 1 hrs) is 27 nM; with Human coronavirus 229E (MRC5, time 1 hrs), 12 nM.
Turning to `COc1ccc([C@@]23Oc4cc(OC)cc(OC)c4[C@]2(O)c2nc4n(c(=O)c2[C@H]3c2ccccc2)CCC4)cc1`, the EC50 in the test on Hepatitis C virus worked out at 0.04 nM.
One may read the IC90 as the concentration at which the effect reaches the 90% level. Regarding `COc1cc2c(c(OC)n1)[C@]1(O)[C@H](O)[C@H](CN(C)C)[C@@H](c3ccccc3)[C@]1(c1ccc(C#N)cc1)O2` [ZOTATIFIN], in the test on SARS-CoV-2, the IC90 turned out to be 37 nM.
